Measurements reported in PubChem BioAssay AID2060912 (Molecular Pharmacology Branch, DTP, NCI, 2025).

System: HUVEC/MSC spheroids viability
Assay: Human HUVEC/MSC cell line growth inhibition [KRAS2];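 as to viability, T/C: percent of DMSO vehicle control luminescence so 100% = untreated viability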
Settings: for IC50: curve of first compound; for viability, T/C: stronger effect = lower value
Outline: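 The concentration series started at or near clinical Cmax (10 microM if not known) and fell in half-log increments, alone or in combination. Cells were stromal-only spheroids of pooled-donor HUVEC and hMSC (passage </=5), with different drug plates and layout from the tumor spheroid screens.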

[1] = second compound 0.0316 µM, first compound 0.0316 µM
[2] = second compound 0.0316 µM, first compound 0.1 µM
[3] = second compound 0.1 µM, first compound 0.0316 µM
[4] = second compound 0.1 µM, first compound 0.1 µM
[5] = second compound 0.316 µM, first compound 0.0316 µM
[6] = second compound 0.316 µM, first compound 0.1 µM
[7] = second compound 1 µM, first compound 0.0316 µM
[8] = second compound 1 µM, first compound 0.1 µM
[9] = second compound 3.16 µM, first compound 0.0316 µM
[10] = second compound 3.16 µM, first compound 0.1 µM
[11] = second compound 10 µM, first compound 0.0316 µM
[12] = second compound 10 µM, first compound 0.1 µM

CC(C)NCC(C(=O)N1CCN(c2ncnc3c2C(C)CC3O)CC1)c1ccc(Cl)cc1 (centres undefined) + CNCc1ccccc1-c1csc(C(C)Nc2nc(C)nc3cc(OC)c(OC)cc23)c1
IC50 (second compound 0.0316 µM): > 10000 nM | IC50 (second compound 0.1 µM): > 10000 nM | IC50 (second compound 0.316 µM): > 10000 nM | IC50 (second compound 1 µM): > 10000 nM | IC50 (second compound 3.16 µM): > 10000 nM | IC50 (second compound 10 µM): < 31.6 nM | viability, T/C [1]: 95.5% | viability, T/C [2]: 108% | viability, T/C (second compound 0.0316 µM, first compound 0.316 µM): 98.5% | viability, T/C (second compound 0.0316 µM, first compound 1 µM): 70.2% | viability, T/C (second compound 0.0316 µM, first compound 3.16 µM): 69% | viability, T/C (second compound 0.0316 µM, first compound 10 µM): 64.2% | viability, T/C [3]: 94.8% | viability, T/C [4]: 97.8% | viability, T/C (second compound 0.1 µM, first compound 0.316 µM): 75.6% | viability, T/C (second compound 0.1 µM, first compound 1 µM): 70.4% | viability, T/C (second compound 0.1 µM, first compound 3.16 µM): 58.1% | viability, T/C (second compound 0.1 µM, first compound 10 µM): 54.1% | viability, T/C [5]: 82.2% | viability, T/C [6]: 106% | viability, T/C (second compound 0.316 µM, first compound 0.316 µM): 83.3% | viability, T/C (second compound 0.316 µM, first compound 1 µM): 73.5% | viability, T/C (second compound 0.316 µM, first compound 3.16 µM): 56.2% | viability, T/C (second compound 0.316 µM, first compound 10 µM): 50.8% | viability, T/C [7]: 84.6% | viability, T/C [8]: 106% | viability, T/C (second compound 1 µM, first compound 0.316 µM): 103% | viability, T/C (second compound 1 µM, first compound 1 µM): 71.3% | viability, T/C (second compound 1 µM, first compound 3.16 µM): 56.5% | viability, T/C (second compound 1 µM, first compound 10 µM): 51.6% | viability, T/C [9]: 108% | viability, T/C [10]: 93.2% | viability, T/C (second compound 3.16 µM, first compound 0.316 µM): 89.4% | viability, T/C (second compound 3.16 µM, first compound 1 µM): 79.5% | viability, T/C (second compound 3.16 µM, first compound 3.16 µM): 62.5% | viability, T/C (second compound 3.16 µM, first compound 10 µM): 57.7% | viability, T/C [11]: 0.38% | viability, T/C [12]: 0.44% | viability, T/C (second compound 10 µM, first compound 0.316 µM): 0.45% | viability, T/C (second compound 10 µM, first compound 1 µM): 0.42% | viability, T/C (second compound 10 µM, first compound 3.16 µM): 0.39% | viability, T/C (second compound 10 µM, first compound 10 µM): 0.26%

CC(C)n1nc(-c2ccc3oc(N)nc3c2)c2c(N)ncnc21 + CNCc1ccccc1-c1csc(C(C)Nc2nc(C)nc3cc(OC)c(OC)cc23)c1
IC50 (second compound 0.0316 µM): 3.15 nM | IC50 (second compound 0.1 µM): 3.11 nM | IC50 (second compound 0.316 µM): 7.12 nM | IC50 (second compound 1 µM): 7.98 nM | IC50 (second compound 3.16 µM): 7.84 nM | IC50 (second compound 10 µM): < 0.316 nM | viability, T/C (second compound 0.0316 µM, first compound 0.000316 µM): 85.2% | viability, T/C (second compound 0.0316 µM, first compound 0.001 µM): 69% | viability, T/C (second compound 0.0316 µM, first compound 0.00316 µM): 50.2% | viability, T/C (second compound 0.0316 µM, first compound 0.01 µM): 44% | viability, T/C [1]: 45.5% | viability, T/C [2]: 44.4% | viability, T/C (second compound 0.1 µM, first compound 0.000316 µM): 84.8% | viability, T/C (second compound 0.1 µM, first compound 0.001 µM): 64.6% | viability, T/C (second compound 0.1 µM, first compound 0.00316 µM): 49.9% | viability, T/C (second compound 0.1 µM, first compound 0.01 µM): 45.6% | viability, T/C [3]: 46.4% | viability, T/C [4]: 45% | viability, T/C (second compound 0.316 µM, first compound 0.000316 µM): 81.9% | viability, T/C (second compound 0.316 µM, first compound 0.001 µM): 66.5% | viability, T/C (second compound 0.316 µM, first compound 0.00316 µM): 50.5% | viability, T/C (second compound 0.316 µM, first compound 0.01 µM): 51.9% | viability, T/C [5]: 45.4% | viability, T/C [6]: 37.6% | viability, T/C (second compound 1 µM, first compound 0.000316 µM): 70.1% | viability, T/C (second compound 1 µM, first compound 0.001 µM): 52.5% | viability, T/C (second compound 1 µM, first compound 0.00316 µM): 56.2% | viability, T/C (second compound 1 µM, first compound 0.01 µM): 50.6% | viability, T/C [7]: 47% | viability, T/C [8]: 37.5% | viability, T/C (second compound 3.16 µM, first compound 0.000316 µM): 89.7% | viability, T/C (second compound 3.16 µM, first compound 0.001 µM): 79% | viability, T/C (second compound 3.16 µM, first compound 0.00316 µM): 67.5% | viability, T/C (second compound 3.16 µM, first compound 0.01 µM): 40.7% | viability, T/C [9]: 50.2% | viability, T/C [10]: 36.5% | viability, T/C (second compound 10 µM, first compound 0.000316 µM): 0.36% | viability, T/C (second compound 10 µM, first compound 0.001 µM): 0.39% | viability, T/C (second compound 10 µM, first compound 0.00316 µM): 0.37% | viability, T/C (second compound 10 µM, first compound 0.01 µM): 0.37% | viability, T/C [11]: 0.42% | viability, T/C [12]: 0.4%
